# Laboratory results as given in ChEMBL document CHEMBL3301451, “MMV Malaria Box gametocyte functional viability assay screening”.
# Tests used:
# Assay type in all cases: functional
# Set-up in all cases: concentration or dose not given beside the values
# Plasmodium falciparum [1] = assay: MMV: P. falciparum NF54 functionally mature Stage V gametocytes were incubated for 24 hr in the presence of the test compounds. Gamete formation was then triggered by addition of 2uM xantheurenic acid and temperature decrease to ~20C. Female gamete formation was recorded 24 hr later by automated microscopy detection of surface labelling of female gametes with a Cy3-conjugated antibody reactive to Pfs25. All compounds were tested in 4 independent experiments and data presented here is the mean.; conditions: NF54, 24 h
# Plasmodium falciparum [2] = assay: MMV: P. falciparum NF54 functionally mature Stage V gametocytes were incubated for 24 hr in the presence of the test compounds. Gamete formation was then triggered by addition of 2uM xantheurenic acid and temperature decrease to ~20C. Male gamete exflagellation was recorded and analysed by automated microscopy after 20 min. All compounds were tested in 4 independent experiments and data presented here is the mean.
# Plasmodium berghei = assay: MMV: P. berghei-infected blood was withdrawn from mice by cardiac pucture before being immediately added to ookinete culture medium containing test compounds. 26 hr later, GFP-positive ookinetes were identified and counted by automated microscopy. All compounds were tested in 4 independent experiments and data presented here is the mean.
Compound,inhibition (Plasmodium falciparum [1]),inhibition (Plasmodium falciparum [2]),inhibition (Plasmodium berghei)
COc1ccc(Nc2nc(N/N=C/c3ccc(O)cc3)nc(Nc3ccc([N+](=O)[O-])cc3)n2)cc1,-19.8%,-4.02%,30.88%
COc1ccc(-c2c(C)nn3c(N)c(C#N)cnc23)cc1OC,-16.8%,-13.8%,6.903%
CSC1=NC(=Nc2c(C)cccc2C)C2(CCC(C(C)(C)C)CC2)N1c1ccc(Cl)cc1 (configuration not stated),-11.8%,15.7%,10.1%
Nc1nc(Nc2cccc(F)c2)nc2ccccc12,-41.8%,-16.2%,16.83%
COc1ccc(/C=C2/SC(=Nc3ccccc3)NC2=O)cc1,-46.5%,3.39%,15.63%
CCn1nc(-c2ccc(C(=O)OC)cc2)nc2c(=O)n(C)c(=O)nc1-2,-15.8%,25.3%,17.71%
CCOc1ccccc1CN1CCc2nc3cc(C(C)(C)C)nn3c(O)c2C1,5.87%,3.23%,19.57%
O=C(NC1CCN(Cc2ccccc2)CC1)c1cc2nc(-c3ccc(Cl)s3)cc(C(F)(F)F)n2n1,-40.5%,-4.49%,28.86%
COc1cccc(C2(C)Nc3ccccc3-c3nc4ccccc4n32)c1 (configuration not stated),7.61%,-12.6%,6.874%
O=C(NNc1cc(N2CCCC2)nc(N2CCCC2)n1)c1ccccc1,-28.5%,30.4%,26.51%
COc1ccc(C2c3ccc4ccccc4c3Oc3ncn(CCCn4ccnc4)c(=N)c32)cc1OC (configuration not stated),-9.13%,17.5%,36.85%
Cc1ccc(-c2cc3c(nn2)-c2ccccc2C3=O)cc1,-20.4%,30.4%,22.47%
O=C1c2ccccc2-c2nnc(-c3ccc(Br)cc3)cc21,-19.6%,19.4%,9.656%
Cc1ccc(Nc2nc(-c3ccccn3)cs2)cc1,0.787%,16.3%,12.18%
O=C(NCc1ccco1)C1CCN(S(=O)(=O)c2ccc(Cl)cc2)CC1,-26.9%,46.2%,33.84%
COc1cc(C(=O)Nc2ccc(-c3nc4ccccc4[nH]3)cc2)cc(OC)c1OC,-25.2%,-40.5%,21.1%
FC(F)(F)c1ccc(Nc2nnnc3ccccc23)cc1,-30.5%,33.7%,36.6%
COc1cc2cc(C(=O)Nc3ccccc3)c(N)nc2cc1OC,-10%,22%,8.567%
O=c1nc(C=Cc2ccc(Br)cc2)oc2ccccc12,4.96%,35.1%,19.61%
CC(Oc1ccc(NC(=O)c2cccs2)cc1)C(=O)c1ccc(Cl)cc1 (configuration not stated),-14%,25.6%,73.22%
Cc1sc2ncnc(Sc3nc4ccccc4[nH]3)c2c1C,-10.9%,30.8%,65.53%
CN(C)c1ccc(C=Cc2nc(=O)c3ccccc3o2)cc1,-16.7%,17.6%,54.94%

Compound,inhibition (Plasmodium falciparum [1]),inhibition (Plasmodium falciparum [2]),inhibition (Plasmodium berghei)
CCCCNc1nc(NC(C)(C)C)nc(NC(C)(C)C)n1,-29.6%,-9.24%,83.46%
O=C(O)C(=O)O.Oc1ccccc1CN1CCN(C(c2ccccc2)c2ccccc2)CC1,-11.9%,23.5%,19.05%
OC(CNC1CCCCC1)Cn1c2ccccc2c2ccccc21 (configuration not stated),4.91%,12.1%,28.1%
COc1cccc(C=Cc2nc(=O)c3ccccc3o2)c1OC,-15.1%,-2.89%,98.18%
COc1ccc(CCn2c(=N)c(C(=O)NCc3cccnc3)cc3c(=O)n4cccc(C)c4nc32)cc1,-20.7%,-7.17%,23.24%
COc1ccc(-c2cn3c(C(=O)Nc4ccccc4Cl)c(-c4ccccc4)c4c3n2CCCC4)cc1,-34.6%,-67.8%,15.55%
Cc1ccc(CSCc2ccc(C(=O)NC3CC3)o2)cc1,-29.1%,34.4%,11.64%
O=c1cc(NC2CCN(CCCc3ccccc3)CC2)c2cc(Cl)ccc2o1,-4.85%,-9.89%,7.737%
COc1ccc(C=C2SC(Nc3ccc(F)cc3)=NC2=O)c(OC)c1,-24.5%,42.9%,49.11%
Cc1ccc(-c2cc3nc4c(c(O)n3n2)CCCC4)cc1,-14.6%,22.3%,12.06%
COc1cccc(C(=O)Nc2ccc(-c3nc4ccccc4[nH]3)cc2)c1,1.53%,24%,18.46%
CCN(Cc1ccccc1)C1CCN(Cc2cc(Br)ccc2O)CC1.O=C(O)C(=O)O,-4.68%,7.05%,11.31%
OCCNc1nc(Nc2ccc(Cl)c(Cl)c2)nc2ccccc12,-25.8%,-35.4%,17.26%
Nc1ccc(-c2nc3cc(Oc4ccc(Oc5ccc6[nH]c(-c7ccc(N)cc7)nc6c5)cc4)ccc3[nH]2)cc1,-54.1%,3.94%,13.14%
CCN(CC)CCNc1ncnc2c1[nH]c1ccc(Br)cc12,13.8%,-106%,9.06%
O=C(Nc1ccc(Cl)cc1)N1CCN(c2ccc3nncn3n2)CC1,-16.6%,25.9%,8.279%
CC1CCN(Cc2c(O)ccc3cc(-c4nc5ccccc5s4)c(=O)oc23)CC1,-24.7%,-4.49%,100%
c1ccc2cc3c(Nc4ccc(N5CCOCC5)cc4)ccnc3cc2c1,-0.0777%,13.2%,12.53%
Cc1c(C)n(Cc2ccc(F)cc2)c2ccc(C(=O)NCc3ccco3)cc12,-40.2%,49.7%,17.74%
CCOc1cc2c(cc1OCC)C(c1cc(Cl)ccc1O)NCC2 (configuration not stated),-14.7%,4.54%,9.631%
CCN(CC)c1ccc(NC(=O)c2cccs2)cc1,-5.42%,44.7%,23.39%
CCCCNCC(O)(c1ccc(Cl)cc1)c1ccc(Cl)cc1,-11%,5.76%,10.56%

Compound,inhibition (Plasmodium falciparum [1]),inhibition (Plasmodium falciparum [2]),inhibition (Plasmodium berghei)
CC(C)(C)C(=O)Nc1ccc(C(=O)Nc2cccc(-c3nc4ccccc4[nH]3)c2)cc1,-2.43%,11%,14.15%
O=C(Nc1ccc(N2CCN(Cc3ccccc3)CC2)cc1)c1cccs1.O=C(O)C(F)(F)F,16.2%,39.5%,16.79%
Cc1ccc(Cn2c(N3CCC(C(=O)NCc4cccs4)CC3)nc3ccccc32)cc1,-22.4%,12.1%,6.449%
O=C(Nc1ccc(Cl)cc1C(=O)Nc1ccncc1)c1ccc(Cl)cc1Cl,9.34%,7.46%,36.2%
O=C1CC(O)(C(F)(F)C(F)(F)F)Oc2ccccc21 (configuration not stated),-15.2%,,-0.9117%
Cc1ccc(C2CC(C(F)(F)F)n3nc(C(=O)N4CCN(C(c5ccccc5)c5ccccc5)CC4)cc3N2)cc1 (configuration not stated),-8.56%,8.58%,12.55%
CC(C)(C)c1ccc(C(=O)Nc2nc3ccccc3s2)cc1,-4.04%,26.1%,18.69%
O=c1nc(C=Cc2ccc(Cl)cc2)oc2ccccc12,-1.1%,41%,7%
O=C(NCc1ccco1)C1CCN(S(=O)(=O)c2ccc(Br)cc2)CC1,5.71%,29.2%,31.69%
Oc1c(CN2CCN(c3ccccc3F)CC2)cc(Br)c2cccnc12,31.5%,5.41%,34.85%
CCCc1c(C)nc2ccc(Br)cc2c1O,-18.5%,-14.5%,47.59%
CCCc1c(C)nc2ccccc2c1O,1.84%,66.4%,34.59%
CCOc1ccc(Nc2c3ccccc3nc3ccccc23)cc1.Cl,-9.14%,21.7%,63.73%
CCCCc1c(C)nc2c(OC)cccc2c1O,0.0743%,54.7%,20.97%
CCCCCCc1cc2cc(-c3nc4ccccc4[nH]3)c(=Nc3ccccc3C)oc2cc1O,5.88%,9.8%,23.15%
COc1ccc(C2Sc3ccccc3N=C3C2=C(O)c2ccccc23)cc1 (configuration not stated),0.279%,32.2%,68.07%
CCOc1ccc(CCNC(=O)c2cccs2)cc1OCC,2.16%,22%,8.759%
CCCCCn1c(=N)n(CC(O)COc2cccc(C)c2)c2ccccc21.Cl (configuration not stated),-30.6%,-6.7%,6.769%
O=c1c2c([nH]c3ccccc13)CCCC2,-24.5%,51%,6.827%
COc1ccccc1N1C(=N)SC(=Cc2ccc(OCc3ccccc3F)cc2)C1=O,10.4%,12.8%,33.34%
c1ccc(Cn2c(N=Nc3c(Nc4ccccc4)ccc4ccccc34)nc3ccccc32)cc1,7.17%,-0.509%,7.124%
C=CCc1c(C)nc2ccccc2c1O,-51.4%,52.3%,19.81%
